Consider 34 molecules from ChEMBL document CHEMBL1144017, “Novel AMPA and kainate receptor antagonists containing the pyrazolo[1,5-c]quinazoline ring system: Synthesis and structure-activity relationships” (Bioorg Med Chem, 2008).

pIC50, pKi: −log10 of the molar value. A value given as a limit tells only on which side of the number the result lay.

The species entered for assay [1] is Rattus norvegicus. The assay is described as follows: Displacement of [3H]kainate from KA receptor in rat cortical membrane at 100 uM. It is filed as cell membranes.
Assay [2] is filed under the species Rattus norvegicus. The assay is described as follows: Ratio of Ki for rat NMDA receptor to Ki for rat AMPA receptor.
The target of assay [3] is Glutamate NMDA receptor (Rattus norvegicus) (UniProt P35439+Q00959+Q00960+Q00961+Q62645+Q8VHN2+Q9R1M7). Description: Displacement of [3H]glycine from NMDA receptor in rat cortical membrane at 100 uM. The format is cell membranes. (In general: In a radioligand displacement assay an active substance lowers the binding of a labelled ligand.)
The nature of assay [4]: Displacement of [3H]AMPA from AMPA receptor in rat cortical membrane. It is filed as cell membranes.
For assay [5], the species on record is Rattus norvegicus. Description: Displacement of [3H]AMPA from AMPA receptor in rat cortical membrane at 100 uM. It is filed as cell membranes.
Assay [6] addresses Glutamate NMDA receptor (Mus musculus). Description: Antagonist activity at NMDA receptor assessed as inhibition of NMDA-induced depolarization in mouse cortical wedge preparation by electrophysiology assay.
For assay [7], the target named is AMPA receptor (Mus musculus). The assay is described as follows: Antagonist activity at AMPA receptor assessed as inhibition of AMPA-induced depolarization in mouse cortical wedge preparation by electrophysiology assay.
A short description of assay [8]: Displacement of [3H]kainate from KA receptor in rat cortical membrane. The format is cell membranes.
Assay [9] addresses Glutamate NMDA receptor. Description: Displacement of [3H]glycine from NMDA receptor in rat cortical membrane. It is filed as cell membranes.

In general, pKi refers to −log10 of the Ki, conventionally taken in molar units. Low values mean a high Ki, high ones a low Ki. For the molecule `CCNC(=O)Nc1cc2c(cc1Cl)[nH]c(=O)n1nc(C(=O)OCC)c(C(=O)OCC)c21`, the figures for the Activity in assay [1] and in assay [3] were 13% and 44%, respectively. Besides, in assay [2], the Ratio Ki was more than 3.7. The molecule also gave a negative logarithm of the Ki (pKi) in [4] of 4.57.

As to `CCOC(=O)c1nn2c(=O)[nH]c3cc(Cl)c(NC(=O)NCc4ccccc4)cc3c2c1C(=O)OCC`, the Activity in [1] was found to be 0%; in [3] it was 19%; in [5], 44%.

Broadly, the pIC50 is the negative decadic logarithm of the IC50, by convention in mol/L. Take `CCOC(=O)c1nn2c(=O)[nH]c3cc(Cl)c(-n4cnnc4)cc3c2c1C(=O)OCC`: in assay [2], the Ratio Ki was more than 80. The Activity in [3] was 18%. Besides, the pIC50 is less than 4.70 in assay [6], 5.24 in [7] and 4.09 in [8]. This molecule also gave a pKi in assay [4] of 5.92.

On to `CCOC(=O)c1nn2c(=O)[nH]c3cc(Cl)c(NC(=O)Nc4ccccc4)cc3c2c1C(=O)OCC`, for which the values for the Activity in assay [1], in [3] and in assay [5] were 0%, 11% and 20%, respectively.

For `O=C(Nc1cccc(C(=O)O)c1)Nc1cc2c(cc1Cl)[nH]c(=O)n1nc(C(=O)O)c(C(=O)O)c21`, in assay [2], the Ratio Ki turned out to be 83. The figures for the negative-log Ki (pKi) in assay [9] and in assay [4] were 4.46 and 6.38, respectively. This molecule gave a pIC50 in [8] of 5.52.

`O=C(NCCc1ccccc1)Nc1cc2c(cc1Cl)[nH]c(=O)n1nc(C(=O)O)c(C(=O)O)c21`: the pKi in [9] was 4.51; in assay [4], 6.32. This molecule also had a pIC50 in [8] of 4.77.

`CCOC(=O)c1nn2c(=O)[nH]c3cc(Cl)c(NC(=O)NCCc4ccccc4)cc3c2c1C(=O)OCC`: the Activity in [1] turned out to be 9%; in [5], 44%. The Ratio Ki in [2] amounted to 0.49. For the same molecule, the pKi in assay [9] was 4.31.

Consider `O=C(O)c1nn2c(=O)[nH]c3cc(Cl)c([N+](=O)[O-])cc3c2c1Cl`, for which the Ratio Ki in [2] worked out at 1.9. Also, the negative-log Ki (pKi) was 5.60 in assay [9] and 5.89 in assay [4]. Also, the pIC50 in [8] was 4.03.

Take `O=C(Nc1cc2c(cc1Cl)[nH]c(=O)n1nc(C(=O)O)c(C(=O)O)c21)NC(Cc1ccccc1)C(=O)O` (racemic): in assay [2], the Ratio Ki was found to be 129. Besides, the pKi was 4.21 in assay [9] and 6.33 in assay [4]. The pIC50 in assay [8] is 4.40.

As to `CCOC(=O)c1nn2c(=O)[nH]c3cc(Cl)c([N+](=O)[O-])cc3c2c1[N+](=O)[O-]`, the values for the Activity in assay [1] and in [5] were 16% and 45%, respectively. In addition, in assay [2], the Ratio Ki worked out at 0.4. In addition, the pKi in [9] is 4.44.

Take `O=C(Nc1ccccc1)Nc1cc2c(cc1Cl)[nH]c(=O)n1nc(C(=O)O)c(C(=O)O)c21`: the Ratio Ki in assay [2] was 83.5. The pKi is 4.93 in [9] and 6.85 in assay [4]. Moreover, in assay [8], the negative logarithm of the IC50 (pIC50) was 4.96.

As for `O=C(NCc1ccccc1)Nc1cc2c(cc1Cl)[nH]c(=O)n1nc(C(=O)O)c(C(=O)O)c21`, in [2], the Ratio Ki was 44. Further, the pKi in assay [9] is 4.79; in assay [4], 6.43. For the same molecule, the negative logarithm of the IC50 (pIC50) in assay [8] is 4.96.

For the molecule `CCOC(=O)CNC(=O)Nc1cc2c(cc1Cl)[nH]c(=O)n1nc(C(=O)OCC)c(C(=O)OCC)c21`, the Activity in [1] turned out to be 19%; in assay [3], 43%. For the same molecule, in assay [2], the Ratio Ki was more than 11. This molecule showed a pKi in assay [4] of 5.05.

Consider `O=C(O)c1nn2c(=O)[nH]c3cc(Cl)c(-n4cccc4)cc3c2c1C(=O)O`, for which, in assay [2], the Ratio Ki amounted to 154. Moreover, the pKi in assay [9] was 4.70; in assay [4], 6.89. This molecule had a pIC50 in assay [8] of 5.35.

Regarding `CCOC(=O)c1c(C(=O)O)nn2c(=O)[nH]c3cc(Cl)c([N+](=O)[O-])cc3c12`, the Ratio Ki in [2] is 5. Further, the pKi in assay [9] was 5.33; in [4], 6.03. The same molecule gave a pIC50 in assay [8] of 4.22.

In the case of `O=C(Nc1ccc(C(=O)O)cc1)Nc1cc2c(cc1Cl)[nH]c(=O)n1nc(C(=O)O)c(C(=O)O)c21`, the Ratio Ki in [2] was found to be 44. Further, the pKi was 4.31 in assay [9] and 5.96 in assay [4]. Also, the pIC50 in [8] was 4.89.

On to `CCOC(=O)c1nn2c(=O)[nH]c3cc(Cl)c(NC(=O)c4ccccc4C(=O)O)cc3c2c1C(=O)OCC`, for which the Ratio Ki in [2] amounted to 12.8. Also, the results for the pKi in assay [9] and in assay [4] were 4.44 and 5.55, respectively. This molecule had a pIC50 in assay [8] of 6.96.

As for `CCOC(=O)CCCNC(=O)Nc1cc2c(cc1Cl)[nH]c(=O)n1nc(C(=O)OCC)c(C(=O)OCC)c21`, in assay [1], the Activity was determined as 24%. Moreover, the Ratio Ki in [2] turned out to be 28. Besides, the pKi was 4.00 in assay [9] and 5.46 in assay [4].

For the molecule `O=C(O)c1nn2c(=O)[nH]c3cc(Cl)c([N+](=O)[O-])cc3c2c1C(=O)O`, in assay [2], the Ratio Ki turned out to be 2. The pKi was 5.90 in assay [9] and 6.23 in assay [4]. The same molecule showed a pIC50 in assay [8] of 4.93.

With `O=C(O)c1nn2c(=O)[nH]c3cc(Cl)c(-n4cnnc4)cc3c2c1C(=O)O`, the Ratio Ki in assay [2] is more than 1000. For the same molecule, the Activity in assay [3] came to 43%. For the same molecule, the negative-log IC50 (pIC50) in [6] was less than 5.00; in [7] it was 5.60; in assay [8], 5.62. The molecule further gave a pKi in [4] of 7.00.

Turning to `CCOC(=O)c1ccc(NC(=O)Nc2cc3c(cc2Cl)[nH]c(=O)n2nc(C(=O)OCC)c(C(=O)OCC)c32)cc1`, the Activity amounted to 15% in [1], 5% in [3] and 5% in assay [5].

Regarding `CCOC(=O)c1nn2c(=O)[nH]c3cc(Cl)c(-n4ccc(C=O)c4)cc3c2c1C(=O)OCC`, the Activity in [1] amounted to 17%; in assay [3], 20%. The Ratio Ki in assay [2] was more than 6. In assay [4], this molecule had a pKi of 4.80.

With `CCOC(=O)c1nn2c(=O)[nH]c3cc(Cl)c(-n4cccc4)cc3c2c1C(=O)OCC`, the Activity came out at 12% in assay [1] and 13% in assay [3]. In addition, the Ratio Ki in [2] is more than 2. For the same molecule, the pKi in assay [4] is 4.32.

`O=C(O)c1cc2c3cc(-n4cnnc4)c(Cl)cc3[nH]c(=O)n2n1` gave a negative logarithm of the Ki (pKi) in assay [4] of 6.85.

Turning to `O=C(O)c1ccccc1C(=O)Nc1cc2c(cc1Cl)[nH]c(=O)n1nc(C(=O)O)c(C(=O)O)c21`, the Ratio Ki in assay [2] was determined as 20.7. Moreover, the figures for the pKi in assay [9] and in assay [4] were 4.57 and 5.89, respectively. Also, in assay [8], the negative-log IC50 (pIC50) was 6.28.

As to `CCOC(=O)c1nn2c(=O)[nH]c3cc(Cl)c([N+](=O)[O-])cc3c2c1Cl`, the figures for the Activity in assay [1] and in assay [3] were 25% and 45%, respectively. Besides, the Ratio Ki in assay [2] was more than 1.5. Further, the pKi in assay [4] was 4.20.

Turning to `CCNC(=O)Nc1cc2c(cc1Cl)[nH]c(=O)n1nc(C(=O)O)c(C(=O)O)c21`, in assay [2], the Ratio Ki worked out at 73.3. The pKi is 4.39 in assay [9] and 6.25 in assay [4]. Also, the pIC50 in assay [8] is 5.01.

In the case of `CCOC(=O)CCNC(=O)Nc1cc2c(cc1Cl)[nH]c(=O)n1nc(C(=O)OCC)c(C(=O)OCC)c21`, the Activity in assay [1] and in assay [3] was 32% each time. In addition, in assay [2], the Ratio Ki is more than 26. The molecule further had a pKi in assay [4] of 5.42.

For `CCOC(=O)c1cccc(NC(=O)Nc2cc3c(cc2Cl)[nH]c(=O)n2nc(C(=O)OCC)c(C(=O)OCC)c32)c1`, the Activity in assay [1] was determined as 0%; in [3] it was 0%; in [5], 18%.

With `CCOC(=O)c1nn2c(=O)[nH]c3cc(Cl)c([N+](=O)[O-])cc3c2c1C(=O)OCC`, the Activity worked out at 0% in assay [1], 30% in assay [3] and 40% in assay [5].

With `O=C(O)c1nn2c(=O)[nH]c3cc(Cl)c([N+](=O)[O-])cc3c2c1[N+](=O)[O-]`, the Activity in [1] came to 29%. Moreover, the Ratio Ki in assay [2] was found to be 1.7. Further, the values for the pKi in assay [9] and in [4] were 4.69 and 4.92, respectively.

Regarding `CCOC(=O)c1nn2c(=O)[nH]c3cc(Cl)c(NC(=O)NC(Cc4ccccc4)C(=O)OC)cc3c2c1C(=O)OCC` (racemic), the Activity in assay [1] was determined as 16%; in [3] it was 16%; in [5] it was 46%.

With `O=C(O)CCNC(=O)Nc1cc2c(cc1Cl)[nH]c(=O)n1nc(C(=O)O)c(C(=O)O)c21`, the Ratio Ki in assay [2] was 425. The values for the pKi in [9] and in assay [4] were 4.17 and 6.80, respectively. Besides, the pIC50 in [8] was 5.34.

Regarding `O=C(O)CNC(=O)Nc1cc2c(cc1Cl)[nH]c(=O)n1nc(C(=O)O)c(C(=O)O)c21`, the Ratio Ki in assay [2] was 112. Further, the pKi is 4.27 in assay [9] and 6.32 in [4]. Besides, the pIC50 in assay [8] is 5.36.
